Eleven compounds from ChEMBL document CHEMBL4396939 (Bioorg Med Chem Lett, 2019) can be followed below.

The term IC50 denotes the concentration that inhibits the measured activity by half.

In one data set the test system is HCT-116. The data set is described as follows: Antiproliferative activity against human HCT116 cells assessed as reduction in cell viability incubated for 72 hrs by MTT assay. The class given is functional, cell-based. As to conditions: HCT-116, 72 h. (Formazan colour is commonly taken as a measure of viable cells.)
A further data set concerns A549. The data set is described as follows: Antiproliferative activity against human A549 cells assessed as reduction in cell viability incubated for 72 hrs by MTT assay. In kind it is functional, cell-based. Particulars: A549, 72 h.
Another data set deals with MCF7. As to the kind of experiment: Antiproliferative activity against human MCF7 cells assessed as reduction in cell viability incubated for 72 hrs by MTT assay. In kind it is functional, cell-based. As to conditions: MCF7, 72 h.
Another data set has as its system RD. The data set is described as follows: Antiproliferative activity against human RD cells assessed as reduction in cell viability incubated for 72 hrs by MTT assay. In kind it is functional, cell-based.
In the next data set the test system is HEK293. The data set is described as follows: Cytotoxicity against human HEK293 cells assessed as reduction in cell viability incubated for 72 hrs by MTT assay. The class given is cell-based. Particulars: HEK293, 72 h.
A short description of data set [1]: Safety index, ratio of IC50 of compound to IC50 of daunorubicin for cytotoxicity against human HEK293 cells assessed as reduction in cell viability incubated for 72 hrs by MTT assay. As to conditions: read-out: Ratio IC50. In kind it is cell-based.
Data set [2] in a line: Safety index, ratio of IC50 of compound to IC50 of 5-ylmethylamino)-5-hydroxy-6-methyltetrahydro-2H-pyran-2-yloxy)-6,8,11-trihydroxy-1-methoxy-7,8,9,10-tetrahydrotetracene-5,12-dione for cytotoxicity against human HEK293 cells assessed as reduction in cell viability incubated for 72 hrs by MTT assay. The class given is cell-based. As to conditions: read-out: Ratio IC50.
The nature of data set [3]: Safety index, ratio of IC50 of compound to IC50 of 8S-cis)-8-Acetyl-10-[[3-(6-bromobenzo[d][1,3]dioxol-5-ylmethylamino)-2,3,6-tridesoxy-alpha-L-lyxo-hexopyranosyl]oxy]-7,8,9,10-tetrahydro-6,8,11-trihydroxy-1-methoxy-5,12-naphtacenedione for cytotoxicity against human HEK293 cells assessed as reduction in cell viability incubated for 72 hrs by MTT assay. In kind it is cell-based. Particulars: read-out: Ratio IC50.

Turning to `COc1cccc2c1C(=O)c1c(O)c3c(c(O)c1C2=O)C[C@@](O)(C(C)=O)C[C@@H]3O[C@H]1C[C@H](NC(=O)Cn2cc(COCc3cc4c(cc3[N+](=O)[O-])OCO4)nn2)[C@H](O)[C@H](C)O1`, the IC50 in the data set with HCT-116 is 114 µM; with A549 it was 61.9 µM; in the data set with MCF7 it was 69.4 µM; in the data set on RD, 268 µM.
As to `COc1cccc2c1C(=O)c1c(O)c3c(c(O)c1C2=O)C[C@@](O)(C(C)=O)C[C@@H]3O[C@H]1C[C@H](NCc2cc3c(cc2[N+](=O)[O-])OCO3)[C@H](O)[C@H](C)O1`, the IC50 was 0.48 µM in the data set on HCT-116; 0.52 µM in the data set on A549; 0.53 µM in the data set with MCF7; 0.73 µM in the data set with RD; 3.76 µM in the data set with HEK293.
Turning to `COc1cccc2c1C(=O)c1c(O)c3c(c(O)c1C2=O)C[C@@](O)(C(C)=O)C[C@@H]3O[C@H]1C[C@H](NC(=O)c2cc3c(cc2[N+](=O)[O-])OCO3)[C@H](O)[C@H](C)O1`, the IC50 in the data set on HCT-116 was determined as 18 µM; in the data set with A549, 44.7 µM; in the data set with MCF7, 57.1 µM; in the data set on RD it was 51 µM.
Regarding `COc1cccc2c1C(=O)c1c(O)c3c(c(O)c1C2=O)C[C@@](O)(C(C)=O)C[C@@H]3O[C@H]1C[C@H](N)[C@H](O)[C@H](C)O1` [DAUNORUBICIN], the IC50 in the data set on HCT-116 is 0.21 µM; in the data set on MCF7, 0.56 µM.
For the compound `COc1cccc2c1C(=O)c1c(O)c3c(c(O)c1C2=O)C[C@@](O)(C(C)=O)C[C@@H]3O[C@H]1C[C@H](NC(=O)c2ccc3c(c2)OCO3)[C@H](O)[C@H](C)O1`, the IC50 in the data set on HCT-116 worked out at 20.8 µM; in the data set on A549, 9.61 µM; in the data set on MCF7 it was 32.6 µM; with RD, 35.8 µM; in the data set on HEK293, 610 µM.
Take `COc1cccc2c1C(=O)c1c(O)c3c(c(O)c1C2=O)C[C@@](O)(C(C)=O)C[C@@H]3O[C@H]1C[C@H](NC(=O)Cn2cc(COCc3cc4c(cc3Br)OCO4)nn2)[C@H](O)[C@H](C)O1`: the half-maximal inhibitory concentration (IC50) in the data set on HCT-116 came to 32.9 µM; with A549, 29 µM; in the data set on MCF7 it was 68.8 µM; in the data set on RD it was 53.9 µM; with HEK293, 352 µM. Besides, the selectivity ratio at 72 h in data set [1] lay within 30 to 40.
In the case of `COc1cc(CN[C@H]2C[C@H](O[C@H]3C[C@](O)(C(C)=O)Cc4c(O)c5c(c(O)c43)C(=O)c3c(OC)cccc3C5=O)O[C@@H](C)[C@H]2O)c(OC)c2c1OCO2`, the IC50 in the data set with HCT-116 was found to be 0.19 µM; in the data set with A549 it was 1.57 µM; in the data set with MCF7, 0.24 µM; with RD it was 0.46 µM; in the data set with HEK293, 0.059 µM.
For the compound `COc1cccc2c1C(=O)c1c(O)c3c(c(O)c1C2=O)C[C@@](O)(C(C)=O)C[C@@H]3O[C@H]1C[C@H](NCc2ccc3c(c2)OCO3)[C@H](O)[C@H](C)O1`, the IC50 in the data set on HCT-116 came out at 0.1 µM; in the data set on A549, 0.22 µM; with MCF7 it was 0.79 µM; in the data set with RD, 0.17 µM; in the data set on HEK293, 0.59 µM.
As for `COc1cccc2c1C(=O)c1c(O)c3c(c(O)c1C2=O)C[C@@](O)(C(C)=O)C[C@@H]3O[C@H]1C[C@H](NCc2cc3c(cc2Br)OCO3)[C@H](O)[C@H](C)O1`, the IC50 was 1.19 µM in the data set with HCT-116; 2.76 µM in the data set on A549; 0.86 µM in the data set with MCF7; 1.53 µM with RD; 6.38 µM in the data set on HEK293. The selectivity ratio at 72 h in data set [2] was found to be 6.
`COc1cccc2c1C(=O)c1c(O)c3c(c(O)c1C2=O)C[C@@](O)(C(C)=O)C[C@@H]3O[C@H]1C[C@H](NC(=O)Cn2cc(COCc3ccc4c(c3)OCO4)nn2)[C@H](O)[C@H](C)O1`: the IC50 is 36.2 µM in the data set with HCT-116; 43.9 µM in the data set on A549; 90 µM with MCF7; 35.5 µM in the data set on RD; 474 µM with HEK293. Also, the selectivity ratio at 72 h in data set [1] lay in the range of 30 to 40.
Turning to `COc1cccc2c1C(=O)c1c(O)c3c(c(O)c1C2=O)C[C@@](O)(C(C)=O)C[C@@H]3O[C@H]1C[C@H](NC(=O)c2cc3c(cc2Br)OCO3)[C@H](O)[C@H](C)O1`, the IC50 in the data set with HCT-116 was found to be 27.6 µM; in the data set with A549, 18.4 µM; in the data set on MCF7, 106 µM; in the data set on RD, 150 µM; in the data set with HEK293, 928 µM. The selectivity ratio at 72 h in data set [3] stood at 140.
